Source: patent US12465594B2 (Brown University, priority 2018, dated 2025)
“Also recorded” adds a separate entry of the source.

Key:
Alpha1B = Alpha1B (Homo sapiens, UniProt P35368); experiment: PDSP binding assay; conditions: 10 μM, quadruplicate, cloned target
CRFBP-CRF2 complex = target: T1, CRFBP-CRF2 complex (Homo sapiens, UniProt P24387+Q13324); experiment: CRFBP-CRF2 Ca2+ assay (FDSS7000; dose-response, Schild analysis); assay type: cell-based; conditions: for CRF maximal response with increasing concentrations of compound / Mechanism of antagonism relative to CRF (Schild analysis): 1.11, 3.33, 10 μM compound; for Antagonism of the CRFBP-CRF2 response: dose-response in presence of EC80 CRF
T1 construct: FLAG (N); HA (N); expressed in transfected cells
T1 sequence (P24387+Q13324 with tags, fused parts or gaps): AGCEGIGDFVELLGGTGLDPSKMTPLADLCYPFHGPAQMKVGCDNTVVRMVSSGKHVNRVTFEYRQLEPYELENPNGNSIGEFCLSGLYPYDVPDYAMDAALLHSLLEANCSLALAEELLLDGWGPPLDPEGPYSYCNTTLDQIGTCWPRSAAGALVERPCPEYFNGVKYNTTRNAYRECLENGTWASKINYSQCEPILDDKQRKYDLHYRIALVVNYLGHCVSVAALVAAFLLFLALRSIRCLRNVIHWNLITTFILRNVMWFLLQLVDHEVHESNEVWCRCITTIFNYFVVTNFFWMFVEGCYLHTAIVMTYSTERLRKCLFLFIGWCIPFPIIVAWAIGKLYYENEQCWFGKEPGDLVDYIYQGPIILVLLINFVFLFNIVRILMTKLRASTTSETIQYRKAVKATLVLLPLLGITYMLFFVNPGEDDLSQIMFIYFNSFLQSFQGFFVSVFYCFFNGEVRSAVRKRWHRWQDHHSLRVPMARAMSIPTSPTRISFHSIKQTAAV
Procedure: CRFBP-CRF2 HEK293 cells (1,000 cells/6 μL per well) were plated in 1536-well black walled clear-bottom Poly-D-Lysine coated plates (Corning) in Assay Media (Dulbecco's Modified Eagle Medium (DMEM) (1×), phenol red free, 1% Defined Fetal Bovine Serum (FBS) (Hyclone), 1×Penicillin/Streptomycin (P/S), and 1×L-Glutamine) using a Multidrop Combi (Thermo). Cell plates were spun at 500 rpm for 1 minute in a centrifuge, covered with Kalypsys lids, and incubated overnight at 37° C. in the presence of 5% CO2. The following day, 2 μL per well of FLIPR Calcium 4 Dye (Molecular Devices), prepared in Assay Buffer (1×Hanks' balanced salt solution, 20 mM HEPES, 0.1% Bovine Serum Albumin [Sigma], and 2.5 mM probenecid [Sigma], pH 7.4) was added to each well of the assay plate at 0.5×according to the Manufacturer's Instructions using the Multidrop Combi (Thermo) dispenser and the cells were incubated in dye for 1 hour 37° C. in the presence of 5% CO2. Reagents are from Invitrogen unless otherwise stated.
Calcium flux was measured using a Functional Drug Screening System 7000 (FDSS7000; Hamamatsu, Tokyo, Japan). Baseline readings were taken (9 images at 1 Hz; excitation, 470±20 nm; emission, 540±30 nm), and then test compounds (approximately 53 nL) were added at the 10 second time-point using the FDSS's integrated 1536 well pin-tool from source library plates (Corning) containing 2 mM test compound stocks in 100% DMSO. […] Agonist “Hits” were selected by comparing the amplitude of the responses at the time of test compound addition to the CRF maximal response on each plate.
For confirmation screening, the CRFBP-CRF2 Ca^2+ assay was performed in the identical as the primary screen with the following exceptions. For each test compound, eight assay plates were prepared, each of which received a different concentration of test compound by pin-tool in the FDSS7000 Ca^2+ assay. For the agonist confirmation screening, compounds were tested at 53.0 μM, 26.5 μM, 13.3 μM, 6.63 μM, 3.31 μM, 1.66 μM, 0.828 μM, and 0.414 μM. For the antagonist confirmation screening, compounds were tested at 47.1 μM, 23.6 μM, 11.8 μM, 5.89 μM, 2.94 μM, 1.47 μM, 0.736 μM, and 0.368 μM.

H2 = H2 (Homo sapiens, UniProt P25021); experiment: PDSP binding assay; conditions: 10 μM, quadruplicate, cloned target
5-HT2C = target: T2, 5-HT2C (Homo sapiens, UniProt P28335); experiment: PDSP binding assay; conditions: 10 μM, quadruplicate, cloned target
T2 construct: NIMH Psychoactive Drug Screening Program (PDSP)

5-HT2B = target: T3, 5-HT2B (Homo sapiens, UniProt P41595); experiment: PDSP binding assay; conditions: 10 μM, quadruplicate, cloned target
T3 construct: NIMH Psychoactive Drug Screening Program (PDSP)

5-HT7 = target: T4, 5-HT7 (Homo sapiens, UniProt P34969); experiment: PDSP binding assay; conditions: 10 μM, quadruplicate, cloned target
T4 construct: NIMH Psychoactive Drug Screening Program (PDSP)

GABAA = experiment: PDSP binding assay; conditions: 10 μM, quadruplicate, cloned target
KOR = KOR (Homo sapiens, UniProt P41145); experiment: PDSP binding assay; conditions: 10 μM, quadruplicate, cloned target
MOR = MOR (Homo sapiens, UniProt P35372); experiment: PDSP binding assay; conditions: 10 μM, quadruplicate, cloned target
Alpha2B = Alpha2B (Homo sapiens, UniProt P18089); experiment: PDSP binding assay; conditions: 10 μM, quadruplicate, cloned target
5-HT1E = target: T5, 5-HT1E (Homo sapiens, UniProt P28566); experiment: PDSP binding assay; conditions: 10 μM, quadruplicate, cloned target
T5 construct: NIMH Psychoactive Drug Screening Program (PDSP)

5-HT1A = target: T6, 5-HT1A (Homo sapiens, UniProt P08908); experiment: PDSP binding assay; conditions: 10 μM, quadruplicate, cloned target
T6 construct: NIMH Psychoactive Drug Screening Program (PDSP)

CYP2D6 = CYP2D6 (Homo sapiens, UniProt P10635); experiment: in vitro; conditions: microsomes
Sigma 1 = experiment: PDSP binding assay; conditions: 10 μM, quadruplicate, cloned target

T3 sequence (P41595 whole entry, species assumed): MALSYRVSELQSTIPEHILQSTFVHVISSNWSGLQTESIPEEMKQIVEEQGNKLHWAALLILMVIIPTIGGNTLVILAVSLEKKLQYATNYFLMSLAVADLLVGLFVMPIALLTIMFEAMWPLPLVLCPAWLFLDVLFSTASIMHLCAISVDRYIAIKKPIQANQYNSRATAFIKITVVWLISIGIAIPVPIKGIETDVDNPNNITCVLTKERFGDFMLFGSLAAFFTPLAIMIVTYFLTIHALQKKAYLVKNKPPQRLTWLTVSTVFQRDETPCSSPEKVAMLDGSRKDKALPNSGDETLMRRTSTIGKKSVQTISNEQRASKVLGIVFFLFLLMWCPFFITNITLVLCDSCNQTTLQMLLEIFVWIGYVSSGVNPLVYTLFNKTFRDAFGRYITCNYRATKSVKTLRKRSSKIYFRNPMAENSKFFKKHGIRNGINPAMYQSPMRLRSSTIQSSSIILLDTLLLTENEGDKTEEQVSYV
KOR, sequence (P41145 whole entry): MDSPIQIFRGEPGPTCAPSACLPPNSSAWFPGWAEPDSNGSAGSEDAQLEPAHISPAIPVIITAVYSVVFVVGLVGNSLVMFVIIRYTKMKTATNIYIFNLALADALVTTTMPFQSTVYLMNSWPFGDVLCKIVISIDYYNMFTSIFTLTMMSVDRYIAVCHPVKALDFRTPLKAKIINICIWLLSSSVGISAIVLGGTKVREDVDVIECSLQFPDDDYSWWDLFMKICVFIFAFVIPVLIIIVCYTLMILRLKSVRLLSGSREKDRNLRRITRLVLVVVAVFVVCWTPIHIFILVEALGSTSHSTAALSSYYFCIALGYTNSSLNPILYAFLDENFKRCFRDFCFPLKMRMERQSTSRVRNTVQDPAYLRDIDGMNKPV
T2 sequence (P28335 33-458, species assumed): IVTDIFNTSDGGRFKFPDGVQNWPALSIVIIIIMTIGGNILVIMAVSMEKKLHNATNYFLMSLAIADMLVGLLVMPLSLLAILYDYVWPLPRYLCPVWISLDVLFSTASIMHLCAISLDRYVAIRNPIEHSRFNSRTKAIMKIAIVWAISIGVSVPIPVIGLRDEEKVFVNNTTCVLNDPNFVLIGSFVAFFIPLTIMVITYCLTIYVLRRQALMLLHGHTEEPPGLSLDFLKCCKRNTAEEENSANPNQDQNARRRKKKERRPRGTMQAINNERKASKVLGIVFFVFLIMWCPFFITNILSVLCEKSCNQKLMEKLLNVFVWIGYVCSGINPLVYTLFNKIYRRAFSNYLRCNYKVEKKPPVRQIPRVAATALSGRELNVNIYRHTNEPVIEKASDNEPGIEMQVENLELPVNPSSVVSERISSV
CYP2D6, sequence (P10635 whole entry): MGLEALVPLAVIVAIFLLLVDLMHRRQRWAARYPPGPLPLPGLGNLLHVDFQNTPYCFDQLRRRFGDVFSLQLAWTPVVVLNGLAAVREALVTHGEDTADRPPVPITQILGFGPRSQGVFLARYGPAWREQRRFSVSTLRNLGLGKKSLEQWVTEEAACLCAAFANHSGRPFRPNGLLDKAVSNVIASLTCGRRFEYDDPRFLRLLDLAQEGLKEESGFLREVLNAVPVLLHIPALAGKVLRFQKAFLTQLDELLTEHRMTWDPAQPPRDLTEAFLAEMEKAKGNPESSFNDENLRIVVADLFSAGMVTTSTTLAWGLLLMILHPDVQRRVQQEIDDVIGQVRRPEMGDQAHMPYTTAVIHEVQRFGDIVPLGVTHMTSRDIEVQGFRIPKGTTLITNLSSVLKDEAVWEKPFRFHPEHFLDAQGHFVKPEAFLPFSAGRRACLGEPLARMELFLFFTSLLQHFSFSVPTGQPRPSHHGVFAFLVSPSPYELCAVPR
H2, sequence (P25021 whole entry): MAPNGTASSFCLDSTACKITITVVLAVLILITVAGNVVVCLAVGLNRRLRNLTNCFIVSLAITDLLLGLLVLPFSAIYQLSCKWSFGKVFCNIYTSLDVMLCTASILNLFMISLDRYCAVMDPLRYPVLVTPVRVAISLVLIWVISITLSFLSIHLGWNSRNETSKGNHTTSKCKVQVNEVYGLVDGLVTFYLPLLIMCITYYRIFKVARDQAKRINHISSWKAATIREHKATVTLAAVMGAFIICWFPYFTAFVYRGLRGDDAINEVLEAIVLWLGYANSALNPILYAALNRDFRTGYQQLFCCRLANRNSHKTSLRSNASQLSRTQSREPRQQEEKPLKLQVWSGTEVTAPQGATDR
T4 sequence (P34969 whole entry, species assumed): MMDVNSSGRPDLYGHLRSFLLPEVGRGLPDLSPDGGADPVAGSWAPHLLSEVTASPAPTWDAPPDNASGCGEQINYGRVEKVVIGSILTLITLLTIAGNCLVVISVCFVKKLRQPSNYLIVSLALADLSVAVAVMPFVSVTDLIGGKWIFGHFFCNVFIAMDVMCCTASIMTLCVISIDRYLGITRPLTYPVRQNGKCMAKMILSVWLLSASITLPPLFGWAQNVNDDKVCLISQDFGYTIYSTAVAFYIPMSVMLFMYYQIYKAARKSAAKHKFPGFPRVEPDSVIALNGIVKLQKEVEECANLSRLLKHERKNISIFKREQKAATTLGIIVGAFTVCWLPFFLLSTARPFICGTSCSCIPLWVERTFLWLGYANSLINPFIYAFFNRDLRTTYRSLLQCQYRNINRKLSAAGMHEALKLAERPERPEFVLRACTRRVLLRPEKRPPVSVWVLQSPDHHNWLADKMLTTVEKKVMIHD
MOR, sequence (P35372 whole entry): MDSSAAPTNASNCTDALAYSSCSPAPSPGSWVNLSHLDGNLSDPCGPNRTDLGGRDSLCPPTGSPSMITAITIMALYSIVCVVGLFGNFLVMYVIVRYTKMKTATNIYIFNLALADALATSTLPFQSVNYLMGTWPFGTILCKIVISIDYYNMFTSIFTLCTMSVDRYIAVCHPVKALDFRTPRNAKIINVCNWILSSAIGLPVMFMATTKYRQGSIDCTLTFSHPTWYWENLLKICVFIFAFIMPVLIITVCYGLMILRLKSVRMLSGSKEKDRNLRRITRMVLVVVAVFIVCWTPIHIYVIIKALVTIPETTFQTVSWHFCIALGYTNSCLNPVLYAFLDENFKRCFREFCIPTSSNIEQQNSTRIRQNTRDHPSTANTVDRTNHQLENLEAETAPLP
Alpha2B, sequence (P18089 whole entry): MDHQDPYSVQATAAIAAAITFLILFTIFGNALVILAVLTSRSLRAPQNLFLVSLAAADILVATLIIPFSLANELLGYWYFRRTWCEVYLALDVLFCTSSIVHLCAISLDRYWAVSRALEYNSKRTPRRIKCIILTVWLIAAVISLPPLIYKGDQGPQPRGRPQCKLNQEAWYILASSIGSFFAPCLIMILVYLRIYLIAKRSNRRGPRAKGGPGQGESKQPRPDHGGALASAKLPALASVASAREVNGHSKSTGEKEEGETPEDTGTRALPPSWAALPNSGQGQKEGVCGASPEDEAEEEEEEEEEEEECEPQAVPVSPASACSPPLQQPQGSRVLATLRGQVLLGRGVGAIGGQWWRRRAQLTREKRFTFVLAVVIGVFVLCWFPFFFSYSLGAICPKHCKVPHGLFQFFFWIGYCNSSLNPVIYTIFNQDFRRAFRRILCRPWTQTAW
T6 sequence (P08908 whole entry, species assumed): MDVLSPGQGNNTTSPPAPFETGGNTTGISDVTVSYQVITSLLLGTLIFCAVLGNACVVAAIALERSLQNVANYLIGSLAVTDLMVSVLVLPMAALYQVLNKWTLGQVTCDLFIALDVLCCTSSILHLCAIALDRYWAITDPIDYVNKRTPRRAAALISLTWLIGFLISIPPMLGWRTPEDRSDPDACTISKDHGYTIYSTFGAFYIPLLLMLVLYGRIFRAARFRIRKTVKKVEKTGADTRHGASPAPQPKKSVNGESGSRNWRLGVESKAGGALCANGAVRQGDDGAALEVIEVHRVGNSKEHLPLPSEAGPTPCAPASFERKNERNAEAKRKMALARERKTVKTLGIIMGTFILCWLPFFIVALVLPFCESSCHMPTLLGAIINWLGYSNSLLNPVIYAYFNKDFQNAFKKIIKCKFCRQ
T5 sequence (P28566 whole entry, species assumed): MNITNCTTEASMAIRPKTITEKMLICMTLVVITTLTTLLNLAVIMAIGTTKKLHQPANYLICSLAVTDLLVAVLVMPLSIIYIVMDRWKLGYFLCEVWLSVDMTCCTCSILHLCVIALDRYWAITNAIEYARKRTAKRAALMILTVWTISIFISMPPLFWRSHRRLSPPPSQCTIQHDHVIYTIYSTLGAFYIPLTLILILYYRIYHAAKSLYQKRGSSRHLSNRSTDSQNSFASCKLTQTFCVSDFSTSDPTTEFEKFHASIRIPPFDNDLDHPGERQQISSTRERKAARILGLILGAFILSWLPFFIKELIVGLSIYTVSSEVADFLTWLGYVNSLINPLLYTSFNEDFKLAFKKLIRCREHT
Alpha1B, sequence (P35368 whole entry): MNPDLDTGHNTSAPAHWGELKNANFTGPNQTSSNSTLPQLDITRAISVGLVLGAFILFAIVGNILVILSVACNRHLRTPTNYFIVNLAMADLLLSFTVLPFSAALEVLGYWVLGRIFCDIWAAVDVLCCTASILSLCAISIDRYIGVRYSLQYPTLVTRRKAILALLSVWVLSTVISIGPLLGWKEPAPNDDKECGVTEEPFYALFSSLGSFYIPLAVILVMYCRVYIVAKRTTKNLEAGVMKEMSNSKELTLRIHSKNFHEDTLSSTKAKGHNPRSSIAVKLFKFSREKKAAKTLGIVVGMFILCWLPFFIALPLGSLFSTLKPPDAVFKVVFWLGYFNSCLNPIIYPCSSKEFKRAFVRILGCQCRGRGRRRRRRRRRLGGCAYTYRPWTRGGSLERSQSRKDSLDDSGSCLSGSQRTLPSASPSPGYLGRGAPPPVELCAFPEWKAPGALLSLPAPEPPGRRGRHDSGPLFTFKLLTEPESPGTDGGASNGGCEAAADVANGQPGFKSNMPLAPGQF

| SMILES | Activity at Alpha1B (binding assay) (Alpha1B) | CRF maximal response with increasing concentrations of compound (CRFBP-CRF2 complex) | Mechanism of antagonism relative to CRF (Schild analysis) (CRFBP-CRF2 complex) | Mechanism of antagonism relative to CRF (Schild analysis) (CRFBP-CRF2 complex; listed as MLS-0046181) | Antagonism of the CRFBP-CRF2 response (CRFBP-CRF2 complex) | Activity at H2 (binding assay) (H2) | Activity at 5-HT2C (binding assay) (5-HT2C) | Activity at 5-HT2B (binding assay) (5-HT2B) | Activity at 5-HT7 (binding assay) (5-HT7) | Activity at GABAA (binding assay) (GABAA) | Activity at KOR (binding assay) (KOR) | Activity at MOR (binding assay) (MOR) | Activity at Alpha2B (binding assay) (Alpha2B) | Activity at 5-HT1E (binding assay) (5-HT1E) | Activity at 5-HT1A (binding assay) (5-HT1A) | inhibition at 10 µM (CYP2D6) | Activity at Sigma 1 (binding assay) (Sigma 1) |
| --- | --- | --- | --- | --- | --- | --- | --- | --- | --- | --- | --- | --- | --- | --- | --- | --- | --- |
| Brc1ccccc1-c1nnc(CSc2nnnn2-c2ccccc2)o1 [MLS-0046818] | 19% | decreased | noncompetitively antagonize CRF responses | noncompetitive interaction | only inhibit the CRFBP-CRF2 response | 22% | 19% | 67% | −31% | 15% | 85% | 12% | 2% | 16% | 26% | -128% | 8% |
| CC(C)Cn1c(SCC(=O)N2CCc3ccccc3C2)nc2cc(Cl)ccc2c1=O [MLS-0219419] | −1% | decreased | noncompetitive interaction; also recorded: noncompetitively antagonize CRF responses | – | only inhibit the CRFBP-CRF2 response | 20% | −7% | 2% | 6% | 9% | −10% | −4% | 0% | 11% | −9% | -21% | 7% |
